Experimental findings from patent US20200038415A1, “AMINOSTEROL COMPOSITIONS AND METHODS OF USING THE SAME FOR TREATING ERECTILE DYSFUNCTION” (Enterin, Inc., priority 2018, published 2020) are described below.

Where “and” joins values, the source holds several entries; their conditions need not be identical. Identical values can stand only once. Entries after “also recorded” stand apart in the source; their conditions may differ.

Format in all cases: in vivo, human
The subject of data set [1] is PD patients with constipation. The experiment in a line: Safety and adverse event profile, Stage 1 and 2 combined (44 dosed). On the procedure:
Fifty patients were enrolled and 44 were dosed. In Stage 1, 10 patients were dosed, 1 (10%) withdrew prior to completion and 9 (90%) completed dosing. In stage 2, 6 (15%) patients had ≥3 CSBM/week at the end of the run-in period and were excluded, 34 patients were dosed and bowel response was assessable in 31 (91%). Two patients (5.8%) were terminated prior to completion because of recurrent dizziness, and 3 others withdrew during dosing (8.8%): 2 because of diarrhea and 1 because of holiday. Fifteen patients were randomized.

Data set [2] has as its system PD patients with constipation. The experiment in a line: CNS symptoms in Stage 2 (UPDRS, MMSE, PDHQ, BDI-II, sleep diary). As to conditions: for hallucinations and delusions improved or disappeared during treatment: 6 patients with hallucinations or delusions at baseline. From the text: (5) Sleep Diary (participants completed a sleep diary on a daily basis throughout the study. The diaries included time into bed and estimated time to sleep as well as wake time and duration during the night.);
(8) Beck Depression Inventory (BDI-II);
(9) Unified Parkinson's Disease Rating Scale (UPDRS), which consists of 42 items in four subscales (Part I=Non-Motor Aspects of Experiences of Daily Living (nM-EDL) (1.1 cognitive impairment, 1.2 hallucinations and psychosis, 1.3 depressed mood, Part II=Motor Aspects of Experiences of Daily Living (M-EDL), Part III=Motor Examination, and Part IV=Motor Complications;
(10) Mini Mental State Examination (MMSE);
(12) The University of Miami Parkinson's Disease Hallucinations Questionnaire (UM-PDHQ);
Exploratory end-points, in addition to constipation, included for example, (i) depression assessed using the Beck Depression Inventory (BDI-II) (Steer et al. 2000) and Unified Parkinson's Disease Rating Scale (UPDRS); (ii) cognition assessed using the Mini Mental State Examination (MMSE) (Palsteia et al. 2018), Unified Parkinson's Disease Rating Scale (UPDRS), and Trail Making Test (TMT); (iii) sleep and REM-behavior disorder (RBD) using a daily sleep diary, I-Button Temperature Assessment, a REM sleep behavior disorder (RBD) questionnaire (RBDQ) (Stiasny-Kolster et al. 2007), and the UPDRS; (iv) hallucinations assessed using the PD hallucinations questionnaire (PDHQ) (Papapetropoulos et al. 2008), the UPDRS, and direct questioning; (v) fatigue using the Parkinson's Disease Fatigue Scale (PFS-16) and the UPDRS; (vi) motor functions using the UPDRS; and (vii) non-motor functions using the UPDRS.
(§1) Assessments were made at baseline and at the end of the fixed dose and washout periods. Circadian system status was evaluated by continuously monitoring wrist skin temperature (Thermochron iButton DS1921H; Maxim, Dallas) following published procedures (Sarabia et al. 2008).
An exploratory analysis was done with respect to the sleep data, the body temperature data, mood, fatigue, hallucinations, cognition and other motor and non-motor symptoms of PD. Continuous measurements within a subject were compared with a paired t-test and continuous measurements between subject groups were compared with a two-group t-test. Categorical data were compared with a chi-squared test or a Fisher's exact test if the expected cell counts are too small for a chi-squared test.

The test system of data set [3] is PD patients with constipation. The data set is described as follows: Circadian rhythm of wrist skin temperature. As to conditions: for circadian rhythm of skin temperature: markers of healthy circadian function (IS, RA, CFI, IV): fixed dose vs baseline, 12 evaluable patients. On the procedure:
(6) I-Button Temperature Assessment. The I-Button is a small, rugged self-sufficient system that measures temperature and records the results in a protected memory section. The Thermochron I-Button DS1921H (Maxim Integrated, Dallas, Tex.) was used for skin temperature measurement. I-Buttons were programmed to sample every 10 mins., and attached to a double-sided cotton sport wrist band using Velcro, with the sensor face of the I-Button placed over the inside of the wrist, on the radial artery of the dominant hand. Subjects removed and replaced the data logger when necessary (i.e., to have a bath or shower). The value of skin temperature assessment in sleep research is that the endogenous skin warming resulting from increased skin blood flow is functionally linked to sleep propensity. From the collected data, the mesor, amplitude, acrophase (time of peak temperature), Rayleight test (an index of interdaily stability), mean waveforms are calculated.);
as §1
Circadian rhythm of skin temperature was evaluable in 12 patients (i.e., those who had recordings that extended from baseline through washout). Circadian system functionality was evaluated by continuously monitoring wrist skin temperature using a temperature sensor (Thermochron iButton DS1921H; Maxim, Dallas, Tex.) (Sarabia et al. 2008). […]
Briefly, this analysis includes the following parameters: (i) the inter-daily stability (the constancy of 24-hour rhythmic pattern over days, IS); (ii) intra-daily variability (rhythm fragmentation, IV); (iii) average of 10-minute intervals for the 10 hours with the minimum temperature (L10); (iv) average of 10-minute intervals for the 5 hours with the maximum temperature (M5) and the relative amplitude (RA), which was determined by the difference between M5 and L10, divided by the sum of both. […]

As to `CC(C)[C@@H](CC[C@@H](C)[C@H]1CC[C@H]2[C@@H]3[C@H](O)C[C@H]4C[C@@H](NCCCNCCCCN)CC[C@]4(C)[C@H]3CC[C@]12C)OS(=O)(=O)O` (single isomer, unassigned) [squalamine (ENT-01), squalamine], the “worsening of hemorrhoids, patients” value in data set [1] (1/44 patients) is on record as 2.2%. Further, the “worsening of acid reflux, patients” value in data set [1] (2/44 patients) was 4.5%. Further, in data set [1] (3/44 patients), the “flatulence, patients” value stood at 6.8%. Also, in data set [1] (3/44 patients), the “vomiting, patients” value is recorded as 6.8%. For the same molecule, the “dizziness, patients” value in data set [1] (8/44 patients) was determined as 18%. For the same molecule, the “abdominal pain, patients” value in data set [1] (11/44 patients) is given as 32%. Also, the “outcome of all other AEs” value in data set [1] (in vivo) is on record as “resolved spontaneously without discontinuation”. Further, the “hallucinations and delusions improved or disappeared during treatment” value in data set [2] was 5 of 6 and five; in data set [2] (listed as aminosterol), “five and 5 of 6”. Also, the “improvement of arm or leg thrashing frequency” value in data set [2] (baseline 2.2 episodes/week to 0 at maximal dose) was 100%. In addition, the “total sleep time versus baseline” value in data set [2] (beyond 125 mg) is “consistently higher than baseline”. The “hallucinations/delusions did not return following discontinuation” value was 4 weeks in data set [2] (in 1 patient) and 2 weeks in data set [2] (in another patient). Besides, the “time free of hallucinations following cessation of dosing” value in data set [2] (one patient) turned out to be 1 month. Besides, the “circadian rhythm of skin temperature: markers of healthy circadian function (IS, RA, CFI, IV)” value in data set [3] is “significant positive impact; also recorded: improved all markers of healthy circadian function”; in data set [3] (listed as Aminosterol), “improved all markers of healthy circadian function”. Further, in data set [3] (wash-out period), the “circadian parameters during wash-out (IS, CFI)” value is “improvement persisted for several of these circadian parameters”.
